Broadly, the IC50 is the concentration needed to halve the response being measured.

Bounds are passed on as bounds.

Assay [1] addresses Tie2 (Homo sapiens, UniProt Q02763). Description: Tie-2-Kinase HTRF-Assay without kinase preactivation (assay 2). It counts as biochemical. On the set-up: fusion protein of GST and the intracellular domains of Tie-2; GST; made in house; host or cells: insect cells (Hi-5). The following applies: 10 μM ATP, pIC50 = -log IC50 in molar concentration. From the text: Tie2-inhibitory activity of compounds of the present invention was quantified employing two Tie2 HTRF assay as described in the following paragraphs.
A recombinant fusion protein of GST and the intracellular domains of Tie-2, expressed in insect cells (Hi-5) and purified by Glutathion-Sepharose affinity chromatography was used as kinase. Alternatively, commercially available GST-Tie2-fusion protein (Upstate Biotechnology, Dundee, Scotland) can be used As substrate for the kinase reaction the biotinylated peptide biotin-Ahx-EPKDDAYPLYSDFG (C-terminus in amid form) was used which can be purchased e.g. from the company Biosynthan GmbH (Berlin-Buch, Germany). Detection of phosphorylated product is achieved specifically by a trimeric detection complex consisting of the phosphorylated substrate, streptavidin-XLent (SA-XLent) which binds to biotin, and Europium Cryptate-labeled anti-phosphotyrosine antibody PT66 which binds to phosphorylated tyrosine.
Tie-2 (3.5 ng/measurement point) was incubated for 60 min at 22° C. in the presence of 10 μM adenosine-tri-phosphate (ATP) and 1 μM substrate peptide (biotin-Ahx-EPKDDAYPLYSDFG-NH2) with different concentrations of test compounds (0 μM and concentrations in the range 0.001-20 μM) in 5 μl assay buffer [50 mM Hepes/NaOH pH 7, 10 mM MgCl2, 0.5 mM MnCl2, 1.0 mM dithiothreitol, 0.01% NP40, protease inhibitor mixture (“Complete w/o EDTA” from Roche, 1 tablet per 2.5 ml), 1% (v/v) dimethylsulfoxide]. The reaction was stopped by the addition of 5 μl of an aqueous buffer (25 mM Hepes/NaOH pH 7.5, 0.28% (w/v) bovine serum albumin) containing EDTA (90 mM) and the HTRF (Homogeneous Time Resolved Fluorescence) detection reagents streptavidine-XLent (0.2 μM, from Cis Biointernational, Marcoule, France) and PT66-Eu-Chelate (0.3 ng/μl; a europium-chelate labelled anti-phospho-tyrosine antibody from Perkin Elmer).
(§1) The resulting mixture was incubated 1 h at 22° C. to allow the binding of the biotinylated phosphorylated peptide to the streptavidine-XLent and the PT66-Eu-Chelate. Subsequently the amount of phosphorylated substrate peptide was evaluated by measurement of the resonance energy transfer from the PT66-Eu-Chelate to the streptavidine-XLent. Therefore, the fluorescence emissions at 620 nm and 665 nm after excitation at 350 nm was measured in a HTRF reader, e.g. a Rubystar (BMG Labtechnologies, Offenburg, Germany) or a Viewlux (Perkin-Elmer). The ratio of the emissions at 665 nm and at […] was taken as the measure for the amount of phosphorylated substrate peptide. The data were normalised (enzyme reaction without inhibitor=0% inhibition, all other assay components but no enzyme=100% inhibition) and IC50 values were calculated by a 4 parameter fit using an inhouse software.
In general terms: TR-FRET usually uses a lanthanide donor and a delayed reading to cut background.

In assay [2] the target is T1, Aurora-C (Homo sapiens, UniProt Q9UQB9).
T1 construct: GST; made in house; host or cells: HEK293 (the text adds '(Sf9)', which contradicts this)
T1 sequence (Q9UQB9 1-309): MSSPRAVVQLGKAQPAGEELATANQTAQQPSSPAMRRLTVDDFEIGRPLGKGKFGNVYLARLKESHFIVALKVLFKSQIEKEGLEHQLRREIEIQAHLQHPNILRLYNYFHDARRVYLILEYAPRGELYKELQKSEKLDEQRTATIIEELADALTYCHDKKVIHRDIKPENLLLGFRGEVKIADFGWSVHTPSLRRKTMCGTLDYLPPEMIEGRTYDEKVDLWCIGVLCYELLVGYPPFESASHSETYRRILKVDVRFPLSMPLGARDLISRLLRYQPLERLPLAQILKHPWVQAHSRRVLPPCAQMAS
Description: Aurora C HTRF assay (assay 5). Conditions: IC50 assay 5/IC50 assay 2. It counts as biochemical.
Description: Assay 5: Aurora C HTRF Assay
Aurora-C inhibitory activity of compounds of the present invention was quantified employing the Aurora-C HTRF assay as described in the following paragraphs.
Recombinant fusion protein of GST and human Aurora-C was expressed in transiently transfected HEK293 cells (Sf9) and purified by Glutathion-Sepharose affinity chromatography. As substrate for the kinase reaction biotinylated peptide biotin-Ttds-FMRLRRLSTKYRT (C-terminus in amid form) was used which can be purchased e.g. form the company JERINI peptide technologies (Berlin, Germany). Aurora-C was incubated for 60 min at 22° C. in the presence of different concentrations of test compounds in 5 μl assay buffer [25 mM Hepes/NaOH pH 7.4, 0.5 mM MnCl2, 2.0 mM dithiothreitol, 0.1 mM sodium ortho-vanadate, 10 μM adenosine-tri-phosphate (ATP), […] substrate, 0.01% (v/v) TritonX-100 (Sigma), 0.05% (w/v) bovine serum albumin, 1% (v/v) dimethylsulfoxide]. The concentration of Aurora-C was adjusted depending of the activity of the enzyme lot and was chosen appropriate to have the assay in the linear range, typical concentrations were in the range of 0.3 nM. The reaction was stopped by the addition of 5 μl of a solution of HTRF detection reagents (0.2 μM streptavidine-XLent and 1.4 nM Anti-Phospho-(Ser/Thr) Akt substrate-Cryptate (Cis biointernational, France, product no. 61P02KAE), a labeled Phospho-(Ser/Thr) Akt substrate antibody [product #9611B, Cell Signalling Technology, Danvers, Mass., USA] labeled with Europium Cryptate, in an aqueous EDTA-solution (40 mM EDTA, 400 mM KF, 0.05% (w/v) bovine serum albumin in 25 mM HEPES/NaOH pH 7.0).
as §1, with “Anti-Phospho-(Ser/Thr) Akt substrate-Cryptate.” for “PT66-Eu-Chelate.”, “substrate” for “substrate peptide”, “Prot-A-EuK” for “PT66-Eu-Chelate”, “substrate.” for “substrate peptide.”

Chain of Tie2 (Q02763 770-1124 limits assumed, species assumed): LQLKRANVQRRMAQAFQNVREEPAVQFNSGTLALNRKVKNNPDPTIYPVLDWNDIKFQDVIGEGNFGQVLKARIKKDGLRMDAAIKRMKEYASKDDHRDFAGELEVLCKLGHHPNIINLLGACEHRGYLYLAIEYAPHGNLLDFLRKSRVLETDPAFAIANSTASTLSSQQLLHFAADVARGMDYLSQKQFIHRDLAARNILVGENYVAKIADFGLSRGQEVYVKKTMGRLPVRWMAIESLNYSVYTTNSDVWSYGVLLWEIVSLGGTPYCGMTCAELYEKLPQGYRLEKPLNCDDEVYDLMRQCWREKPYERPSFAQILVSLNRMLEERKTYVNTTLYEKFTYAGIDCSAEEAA

As for `O=C(Nc1ccc(-c2cnc3nc2NCCCNS(=O)(=O)c2cccc(c2)N3)cc1)C1(c2cc(C(F)(F)F)ccc2F)CC1` [Example 12, 1-(2-Fluoro-5-trifluoromethyl-phenyl)-cyclopropane-carboxylic acid [4-(13,13-dioxo-13λ^6-thia-2,4,8,12,19-pentaaza-tricyclo[12.3.1.1^3,7]-nonadeca-1(18),3(19),4,6,14,16-hexaen-6-yl)-phenyl]-amide], the IC50 in assay [1] was under 100 nM. The “Selectivity vs. Aurora C” value in assay [2] is over 20 fold.
In the same order, the values of `CC(C)(C(=O)Nc1ccc(-c2cnc3nc2NCCCNS(=O)(=O)c2cccc(c2)N3)cc1)c1ccc(Cl)cc1` [Example 13, 2-(4-Chloro-phenyl)-N-[4-(13,13-dioxo-13λ^6-thia-2,4,8,12,19-pentaaza-tricyclo[12.3.1.1^3,7]-nonadeca-1(18),3(19),4,6,14,16-hexaen-6-yl)-phenyl]-isobutyramide] are under 100 nM and over 20 fold.
